Consider 20 compounds from paper PMC4624220 (Journal of medicinal chemistry, 2015).

“And” between values parts separate entries of the source, which are not always exact repeats. Identical values can stand only once. “Also recorded” adds a separate entry of the source. Like-named read-outs stand apart in the source and are kept apart here.

Data set [1] has as its target T1, α-syn fibrils (Homo sapiens, UniProt P37840).
The target of data set [2] is T2, Aβ1-42 fibrils (Homo sapiens, UniProt P05067).
Data set [3] concerns the target T3, tau fibrils (Homo sapiens, UniProt P10636).
Data set [4] concerns the target T1, α-syn fibrils. The data set can be described thus: biochemical.
For data set [5], the target named is T2, Aβ1-42 fibrils. Description: biochemical.
The target of data set [6] is T3, tau fibrils. The data set can be described thus: biochemical.
Data set [7] addresses Lewy bodies (Homo sapiens, UniProt P37840). The data set can be described thus: Fluorescent staining of postmortem PD/DLB midbrain tissue. The conditions noted are these: 5 μM compound, PD/DLB midbrain sections, fluorescence microscopy.
A short description of data set [8]: Stability of isomers in solution measured by HPLC. It counts as physicochemical. The conditions noted are these: for time for isolated pure Z,E and E,E isomers to isomerize to a mixture: after HPLC separation of the isomers.
Data set [9] has as its target Aβ plaques (Homo sapiens, UniProt P05067). Description: Fluorescent staining of postmortem AD temporal lobe tissue. The conditions noted are these: 5 μM compound, AD temporal lobe sections, fluorescence microscopy.

T3 sequence (P10636 560-692): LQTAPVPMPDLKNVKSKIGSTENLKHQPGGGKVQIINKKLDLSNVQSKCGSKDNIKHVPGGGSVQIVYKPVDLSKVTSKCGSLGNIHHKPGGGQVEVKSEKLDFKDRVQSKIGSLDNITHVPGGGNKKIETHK
T2 sequence (P05067 672-713 limits assumed): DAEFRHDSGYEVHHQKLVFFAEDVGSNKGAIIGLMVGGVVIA
Aβ plaques, sequence (P05067 672-711 limits assumed): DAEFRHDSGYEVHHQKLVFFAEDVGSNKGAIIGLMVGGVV

As for “3-(3-(4-(Dimethylamino)phenyl)allylidene)-1-(pyridin-4-ylmethyl)indolin-2-one [Compound 29]”, the Ki (commonly a measure of affinity in units of concentration, obtained from inhibition or displacement) in [1] stood at 92 ± 11.2 nM; in data set [2] it was 45.9 ± 19.4 nM; in [3], 188 ± 68 nM.

With “3-(4-(Dimethylamino)benzylidene)-1-(pyridin-4-ylmethyl)indolin-2-one [Compound 11]”, the results for the Ki in [1], in data set [2] and in data set [3] were 150 ± 45.7 nM, 87.1 ± 34.1 nM and 364 ± 121 nM, respectively.

Regarding `O=C1Nc2ccccc2C1=C/C=C/c1ccccc1` [Compound 18, 3-(3-Phenylallylidene)indolin-2-one], the Ki in data set [4] was 206 nM and 207 nM; in [5] it was 267 nM; in data set [6], 522 nM.

For `COc1ccc(/C=C/C=C2C(=O)Nc3ccccc32)cc1` [Compound 19, 3-(3-(4-Methoxyphenyl)allylidene)indolin-2-one], the inhibitory constant (Ki) was 62 nM and 61.1 nM in data set [4]; 125 nM and 126 nM in data set [5]; 169 ± 22.3 nM in data set [6].

On to `CN(C)c1ccc(/C=C/C=C2C(=O)Nc3ccccc32)cc1` [Compound 20, 3-(3-(4-(Dimethylamino)phenyl)allylidene)indolin-2-one], for which the “labeling of Lewy bodies” value in data set [7] was “label both Lewy bodies and Aβ plaques; also recorded: high labeling of both Lewy Bodies and Aβ plaques”. The “time for isolated pure Z,E and E,E isomers to isomerize to a mixture” value in [8] is reported as at most 20 min. For the same compound, the Ki was 41 nM and 40.7 nM in data set [4]; 27 nM and 27.6 nM in [5]; 54 nM and 53.7 nM in data set [6]. For the same compound, the “labeling of Aβ plaques” value in data set [9] was “label both Lewy bodies and Aβ plaques; also recorded: high labeling of both Lewy Bodies and Aβ plaques”.

On to `CN(C)c1ccc(/C=C/C=C2C(=O)Nc3ncccc32)cc1` [Compound 21, 3-(3-(4-(Dimethylamino)phenyl)allylidene)-1H-pyrrolo[2,3-b]pyridin-2(3H)-one], for which the Ki in data set [4] amounted to 11.5 ± 2 nM; in data set [5], 15.3 ± 5.5 nM; in data set [6] it was 35.1 ± 12.3 nM.

Take `CN(C)c1ccc(/C=C/C=C2C(=O)Nc3ccc(O)cc32)cc1` [Compound 22, 3-(3-(4-(Dimethylamino)phenyl)allylidene)-5-hydroxyindolin-2-one]: the Ki amounted to 54 ± 17.9 nM in data set [4], 37.1 ± 13.6 nM in data set [5] and 48 ± 17 nM in data set [6].

For the compound `COc1ccc(/C=C/C=C2C(=O)N(Cc3ccccc3)c3ccccc32)cc1` [Compound 24, 1-Benzyl-3-(3-(4-methoxyphenyl)allylidene)indolin-2-one], the results for the Ki in [4], in data set [5] and in [6] were 72.5 ± 22.6 nM, 741 ± 255 nM and 718 ± 295 nM, respectively.

As for `CN(C)c1ccc(/C=C/C=C2C(=O)N(C)c3ccccc32)cc1` [Compound 25, 3-(3-(4-(Dimethylamino)phenyl)allylidene)-1-methylindolin-2-one], the Ki in data set [4] was found to be 63.7 ± 29.6 nM; in data set [5], 56 ± 14.8 nM; in data set [6], 229 ± 121 nM.

For `CN(C)c1ccc(/C=C/C=C2C(=O)N(Cc3ccccc3)c3ccccc32)cc1` [Compound 26, 1-Benzyl-3-(3-(4-(dimethylamino)phenyl)allylidene)indolin-2-one], the Ki in [4] was 40.9 ± 25.2 nM; in data set [5] it was 358 ± 162 nM; in data set [6], 374 ± 209 nM.

As for `COc1ccc(CN2C(=O)C(=C/C=C/c3ccc(N(C)C)cc3)c3ccccc32)cc1` [Compound 27, 3-(3-(4-(Dimethylamino)phenyl)allylidene)-1-(4-methoxybenzyl)indolin-2-one], the “time for isolated pure Z,E and E,E isomers to isomerize to a mixture” value in data set [8] is given as at most 20 min. The figures for the Ki in data set [4], in data set [5] and in [6] were 54.6 ± 11.4 nM, 130 ± 41.4 nM and 240 ± 158 nM, respectively.

As for `CN(C)c1ccc(/C=C/C=C2C(=O)N(Cc3ccc([N+](=O)[O-])cc3)c3ccccc32)cc1` [Compound 28, 3-(3-(4-(Dimethylamino)phenyl)allylidene)-1-(4-nitrobenzyl)indolin-2-one], the Ki is 4 nM and 4.2 nM in [4]; 92.4 ± 21.9 nM in data set [5]; 90 ± 48.8 nM in data set [6].

Consider `CCOC(=O)N1C(=O)C(=C/C=C/c2ccc(N(C)C)cc2)c2ccccc21` [Compound 30, Ethyl 3-(3-(4-(dimethylamino)phenyl)allylidene)-2-oxoindoline-1-carboxylate], for which the Ki in data set [4] was 45.3 ± 9 nM; in [5] it was 84 ± 35 nM; in [6] it was 263 ± 110 nM.

Regarding `CN(C)c1ccc(/C=C/C=C2C(=O)N(Cc3ccccc3)c3ncccc32)cc1` [Compound 31, 1-Benzyl-3-(3-(4-(dimethylamino)phenyl)allylidene)-1H-pyrrolo[2,3-b]pyridin-2(3H)-one], the Ki in data set [4] turned out to be 68.3 ± 31.2 nM; in data set [5], 85.1 ± 23 nM; in [6], 257 ± 117 nM.

In the case of `COc1ccc(CN2C(=O)C(=C/C=C/c3ccc(N(C)C)cc3)c3cccnc32)cc1` [Compound 32, 3-(3-(4-(Dimethylamino)phenyl)allylidene)-1-(4-methoxybenzyl)-1H-pyrrolo[2,3-b]pyridin-2(3H)-one], the Ki is 29.8 ± 6.6 nM in data set [4], 107 ± 18.9 nM in data set [5] and 204 ± 26.7 nM in data set [6].

Regarding `CN(C)c1ccc(/C=C/C=C2C(=O)N(Cc3ccc(N)cc3)c3ccccc32)cc1` [Compound 33, 1-(4-Aminobenzyl)-3-(3-(4-(dimethylamino)phenyl)allylidene)indolin-2-one], the Ki in [4] was determined as 43.6 ± 20 nM; in data set [5], 98.9 ± 12.1 nM; in data set [6] it was 131 ± 51.5 nM.

As for `CN(C)c1ccc(/C=C/C=C2C(=O)N(c3ccccc3)c3ccccc32)cc1` [Compound 36, 3-(3-(4-(Dimethylamino)phenyl)allylidene)-1-phenylindolin-2-one], the figures for the Ki in [4], in data set [5] and in [6] were 68.1 ± 33 nM, 287 ± 142 nM and 465 ± 94.6 nM, respectively.

For `O=C1Nc2ccccc2/C1=C/C=C/c1ccc([N+](=O)[O-])cc1` [Compound 41a, (Z)-3-((E)-3-(4-Nitrophenyl)allylidene)indolin-2-one], the “time stable in solution” value in [8] (CH2Cl2-MeOH (1:1), HPLC peak and retention time) was at least 20 h.

`O=C1Nc2ccccc2/C1=C\C=C\c1ccc([N+](=O)[O-])cc1` [Compound 41b, (E)-3-((E)-3-(4-Nitrophenyl)allylidene)indolin-2-one]: the “isomerization to an un-identified isomer” value in data set [8] (CH2Cl2-MeOH (1:1), 20 h, HPLC) was 33%.

Turning to `Nc1ccc(/C=C/C=C2C(=O)Nc3ccccc32)cc1` [Compound 47, 3-(3-(4-Aminophenyl)allylidene)indolin-2-one], the Ki in [4] amounted to 44.8 ± 15.6 nM; in data set [5], 50.8 ± 18.5 nM; in data set [6], 38.3 ± 28.7 nM.
